# Reference: patent publication US10100030B2 (Kissei Pharmaceutical Co., Ltd., priority 2013, dated 2018)
# What was measured:
# [1] = Ferret pharmacokinetic test; format: in vivo; conditions: plasma, male ferret
# Protocol: Ferret Pharmacokinetic Test
# The test compound solution was prepared by dissolving the test compound in a vehicle (50% N,N-dimethylformamide (Wako Pure Chemical Industries), 30% propylene glycol (Wako Pure Chemical Industries) and 4% 2-hydroxypropyl-β-cyclodextrin (Wako Pure Chemical Industries)). Under anesthesia with isoflurane 0.3 mg/kg of the test compound was intravenously administered to a male ferret (Marshall BioResources Japan) from the jugular vein. In the case of oral administration, 1 mg/kg of the test compound was orally administered to an awake animal. After the administration of the test compound, blood samples were taken sequentially from the brachial cephalic vein, and the concentrations of the test compound in the plasma were measured by a quantitative analysis using liquid chromatography-mass spectrometry (LC/MS).
# In the tables, Ex. No. means the Example number. CLtot and Vss are the total body clearance and the steady-state volume of distribution, based on the plasma concentrations in the case of intravenous administration, respectively, Cmax, AUC and BA are the maximum plasma test compound concentration, the area under the plasma test compound concentration-time curve and the bioavailability, in the case of oral administration, respectively, […]
# [2] = test system: cisplatin-induced acute and delayed emetic response; test: Effect on cisplatin-induced acute and delayed emetic response; format: in vivo, ferret
# Protocol: No 1, 1 mg/kg, po) in the acute phase, and a value of control group, the group intravenously administered with 3 mg/kg of the compound of Example 1 (Ex. […] No 1, 1 mg/kg, po) in the delayed phase from the left respectively. The vertical axes show the number of retching and vomiting ([…]) (the mean+standard error of 5 examples of control group, the mean+standard error of 5 examples of the group intravenously administered, and the mean+standard error of 5 examples of the group orally administered). Effect on Cisplatin-induced Acute and Delayed Emetic Response The test compound solution was prepared by dissolving the test compound in a vehicle (a mixture of 50% N,N-dimethylformamide (Wako Pure Chemical Industries), 30% propylene glycol (Wako Pure Chemical Industries) and 4% 2-hydroxypropyl-β-cyclodextrin (Wako Pure Chemical Industries)). The vehicle only was administered to the control group. Under anesthesia with isoflurane, 3 mg/kg of the test compound was intravenously administered to a male ferret (Marshall BioResources Japan) from the jugular vein. Cisplatin, which was heated to 40-50° C., was intraperitoneally administered at 5 mg/kg one hour after the drug administration. […] The solvent only was administered to the control group. The test compound was orally administered to a male ferret (Marshall BioResources Japan). The oral administration was performed every 24 hours at 1 mg/kg three times in total. Cisplatin, which was heated to 40-50° C., was intraperitoneally administered at 5 mg/kg one hour after the first oral administration of the test compound.
# NK1 receptor = NK1 receptor (Meriones unguiculatus (Mongolian jird) (Gerbillus unguiculatus), UniProt Q5DUB1); test: Effect on GR73632-induced foot-tapping; format: in vivo; conditions: 0.3 mg/kg from the jugular vein, GR73632 after four hours, male gerbil
# Sequence of NK1 receptor (Q5DUB1 whole entry): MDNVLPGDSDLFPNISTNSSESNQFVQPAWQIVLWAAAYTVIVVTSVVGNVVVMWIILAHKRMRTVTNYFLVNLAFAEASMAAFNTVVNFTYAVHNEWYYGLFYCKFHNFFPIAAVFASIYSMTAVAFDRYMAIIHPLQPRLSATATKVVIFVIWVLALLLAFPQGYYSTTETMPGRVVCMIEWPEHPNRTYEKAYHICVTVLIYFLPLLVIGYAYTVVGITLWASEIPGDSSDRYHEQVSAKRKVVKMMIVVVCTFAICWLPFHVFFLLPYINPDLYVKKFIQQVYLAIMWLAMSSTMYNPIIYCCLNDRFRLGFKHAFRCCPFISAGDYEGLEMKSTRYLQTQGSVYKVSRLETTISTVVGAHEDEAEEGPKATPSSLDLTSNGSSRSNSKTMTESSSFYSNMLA
# Protocol: (1) Effect on Foot-tapping
# (§1) A male gerbil (Japan SLC) was anesthetized with isoflurane, and 0.3 mg/kg of a test compound was administered from the jugular vein. After four hours, GR73632 (5 pmol/5 μl), which is an NK1 receptor agonist, was administered into the cerebral ventricle at the part 1 mm lateral to and 4.5 mm below the bregma in the head, under anesthesia with isoflurane. After the administration, the gerbil was moved to an observation cage, and the foot-tapping period during five minutes after the recovery of the righting reflex was measured. The foot-tapping inhibition rate (%) of each test compound was calculated by the following equation. Foot-tapping inhibition rate (%)={1−(Foot-tapping period when test compound was administered)/(Foot-tapping period when solvent was administered)}×100 (2) Measurement of Drug Concentrations
# (§2) In the table, Ex. No. means the Example number. Inhibition (%) is the foot-tapping inhibition rate, and Conc. (nM) is the drug concentration in the brain.
# [3] = Measurement of drug concentrations in the brain after foot-tapping test; format: in vivo; conditions: male; 0.3 mg/kg iv, after foot-tapping was finished, gerbil brain; read-out: Conc. (drug concentration in the brain)
# Protocol: as §1
# After foot-tapping was finished, laparotomy was performed immediately under anesthesia with ether, and a blood sample was taken from the abdominal vena cava. At the same time, the brain was extracted. Through a quantitative analysis using liquid chromatography-mass spectrometry (LC/MS), the concentrations of the test compound in the plasma and the brain were measured.
# as §2
# hERG channel = hERG channel (Homo sapiens (Human), UniProt Q12809); test: Evaluation of hERG current (whole-cell patch clamp); format: cell-based; conditions: 10 μM, application for 10 minutes, n = 3, average ± standard error
# Sequence of hERG channel (Q12809 whole entry): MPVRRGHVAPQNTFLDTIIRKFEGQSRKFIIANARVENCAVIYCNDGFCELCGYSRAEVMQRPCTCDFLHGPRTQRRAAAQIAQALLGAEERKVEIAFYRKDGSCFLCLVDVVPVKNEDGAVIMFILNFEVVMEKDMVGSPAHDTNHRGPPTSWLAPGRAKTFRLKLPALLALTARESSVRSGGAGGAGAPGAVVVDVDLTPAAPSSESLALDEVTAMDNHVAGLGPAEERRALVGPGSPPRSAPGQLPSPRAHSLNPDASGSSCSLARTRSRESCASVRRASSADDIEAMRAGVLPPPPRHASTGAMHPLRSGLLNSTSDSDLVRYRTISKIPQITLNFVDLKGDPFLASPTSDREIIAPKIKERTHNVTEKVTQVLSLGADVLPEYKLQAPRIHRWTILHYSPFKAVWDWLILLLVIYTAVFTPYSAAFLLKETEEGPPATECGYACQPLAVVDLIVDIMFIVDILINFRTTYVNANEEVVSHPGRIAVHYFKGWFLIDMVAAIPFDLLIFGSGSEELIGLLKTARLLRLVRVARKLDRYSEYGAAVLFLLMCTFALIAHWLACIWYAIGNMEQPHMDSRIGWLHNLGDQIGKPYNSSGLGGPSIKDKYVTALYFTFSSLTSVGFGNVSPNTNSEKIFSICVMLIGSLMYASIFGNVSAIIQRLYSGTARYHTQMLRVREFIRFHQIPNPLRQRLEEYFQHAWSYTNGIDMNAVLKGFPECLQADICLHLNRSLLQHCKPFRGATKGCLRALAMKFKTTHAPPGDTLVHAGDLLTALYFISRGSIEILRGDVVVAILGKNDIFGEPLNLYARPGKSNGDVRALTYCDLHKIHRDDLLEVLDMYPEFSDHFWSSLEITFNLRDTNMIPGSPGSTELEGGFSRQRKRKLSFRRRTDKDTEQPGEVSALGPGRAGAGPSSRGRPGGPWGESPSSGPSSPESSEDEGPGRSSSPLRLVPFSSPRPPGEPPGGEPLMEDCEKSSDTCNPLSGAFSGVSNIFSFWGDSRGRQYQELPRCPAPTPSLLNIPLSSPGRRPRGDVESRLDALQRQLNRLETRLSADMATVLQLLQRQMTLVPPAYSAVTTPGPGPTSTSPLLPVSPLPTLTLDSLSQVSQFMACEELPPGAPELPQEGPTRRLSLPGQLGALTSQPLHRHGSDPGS
# Protocol: Evaluation of hERG Current
# The hERG current was measured by a whole-cell method using a patch clamp system, where a cover glass on which hERG channel-expressing human embryonic kidney (HEK) 293 cells were seeded was placed on a perfusion bath and a perfusion solution was caused to flow. The change in the hERG channel-derived current caused by a pulse protocol (holding potential of −80 mV, depolarization pulse of +20 mV for 1.9 seconds, repolarization pulse of −50 mV for 2 seconds, stimulated at intervals of 15 seconds) of data acquisition/analysis software, pCLAMP9 (Axon Instruments, Inc.), was measured. The measurement conditions were a flow rate of about 1.5 mL/min and a temperature of about 33° C. Two wave forms just before applying the test compound and two wave forms immediately after the application for 10 minutes were analyzed, and the statistical analysis was performed. The value before the application of the test compound was regarded as 100%, and the change rate based on the value was determined.
# In the table. Ex. No. means the Example number, and the value is the average±the standard error.
structure (smiles),measurement,setting,value
Cc1cc(F)ccc1-c1cc(N2CCC(CC(=O)O)CC2)ncc1N(C)C(=O)C(C)(C)c1cc(C(F)(F)F)cc(C(F)(F)F)c1 [Example 1],clearance,"[1]; 0.3 mg/kg intravenous, read-out: CLtot (total body clearance)",0.75 mL/min/kg
same,Vd,"[1]; 0.3 mg/kg intravenous, read-out: Vss (steady-state volume of distribution)",0.336 L/kg
same,bioavailability,"[1]; 1 mg/kg oral, read-out: BA (bioavailability)",61%
same,Cmax,"[1]; 1 mg/kg oral, read-out: Cmax (maximum plasma test compound concentration)",1270 ng/mL
same,number of retching and vomiting,"[2]; 1 mg/kg po every 24 hours three times, acute phase (up to 24 hours after cisplatin)",inhibition of the number of retching and vomiting was observed
same,number of retching and vomiting,"[2]; 1 mg/kg po every 24 hours three times, delayed phase (24 to 72 hours after cisplatin)",inhibition of the number of retching and vomiting was observed
same,number of retching and vomiting,"[2]; 3 mg/kg iv, acute phase (up to 24 hours after cisplatin)",inhibition of the number of retching and vomiting was observed
same,number of retching and vomiting,"[2]; 3 mg/kg iv, delayed phase (24 to 72 hours after cisplatin)",inhibition of the number of retching and vomiting was observed
same,Inhibition (foot-tapping inhibition rate),NK1 receptor,100%
same,concentration at 4 h,[3],275 nM
same,"hERG current, % of value before application",hERG channel,93.9 ± 2.7%
